Data published in the supplement of paper PMC11281043.
± gives the standard deviation of the averaged measurements.

Key:
Settings in all cases: exposure: 6-8 hpf to 5 dpf, scored at 6 dpf
Danio rerio embryo/larva [1] = test: max % larvae with pigmentation defects across tested concentrations; higher = more toxic
Danio rerio embryo/larva [2] = test: max % larvae with edema across tested concentrations; higher = more toxic; extreme values may be limits of the assay
Danio rerio embryo/larva [3] = test: max % larvae with tail defects across tested concentrations; higher = more toxic; extreme values may be limits of the assay
Danio rerio embryo/larva [4] = test: max % larvae with blood pooling across tested concentrations; higher = more toxic; extreme values may be limits of the assay
Danio rerio embryo/larva [5] = test: max % larvae generally abnormal across tested concentrations; higher = more toxic; extreme values may be limits of the assay
Danio rerio embryo/larva [6] = test: max % larvae with spinal defects across tested concentrations; higher = more toxic; extreme values may be limits of the assay
Danio rerio embryo/larva [7] = test: max % larvae with abnormal position across tested concentrations; higher = more toxic; extreme values may be limits of the assay
Danio rerio embryo/larva [8] = test: max % larvae with craniofacial defects across tested concentrations; higher = more toxic; extreme values may be limits of the assay
Danio rerio embryo/larva [9] = test: max % larvae with uninflated swim bladder across tested concentrations; higher = more toxic; extreme values may be limits of the assay

| Structure (SMILES) | max % larvae (Danio rerio embryo/larva [1]) [%] | max % larvae (Danio rerio embryo/larva [2]) [%] | max % larvae (Danio rerio embryo/larva [3]) [%] | max % larvae (Danio rerio embryo/larva [4]) [%] | max % larvae generally abnormal across tested concentrations (Danio rerio embryo/larva [5]) [%] | max % larvae (Danio rerio embryo/larva [6]) [%] | max % larvae (Danio rerio embryo/larva [7]) [%] | max % larvae (Danio rerio embryo/larva [8]) [%] | max % larvae (Danio rerio embryo/larva [9]) [%] |
| --- | --- | --- | --- | --- | --- | --- | --- | --- | --- |
| CO[Si](C)(CCC(F)(F)C(F)(F)C(F)(F)C(F)(F)C(F)(F)C(F)(F)F)OC [Dimethoxymethyl((perfluorohexyl)ethyl)silane] (max tested concentration (log10 uM): 1.60206) | 0 | 0 | 0 | 0 | 0 | 0 | 0 | 0 | 0 |
| O=C(O)C(F)(F)OC(F)(F)C(F)(F)OC(F)(F)C(F)(F)C(F)(F)C(F)(F)F [Perfluoro-3,6-dioxadecanoic acid] (max tested concentration (log10 uM): 2) | 0 | 56.2 | 6.25 | 50 | 68.8 | 0 | 31.2 | 75 | 62.5 |
| NC(=O)C(F)(F)C(F)(F)F [Pentafluoropropionamide] (max tested concentration (log10 uM): 2) | 0 | 0 | 0 | 0 | 0 | 0 | 0 | 0 | 0 |
| O=C(O)C(F)(F)C(F)(F)C(F)(F)C(F)(F)C(F)(F)C(F)(F)F [Perfluoroheptanoic acid] (max tested concentration (log10 uM): 2) | 0 | 8.33 | 0 | 0 | 8.33 | 0 | 0 | 0 | 16.7 |
| FC(F)(Br)C(F)(F)C(F)(F)C(F)(F)C(F)(F)C(F)(F)Br [1,6-Dibromododecafluorohexane] (max tested concentration (log10 uM): 2) | 0 | 4.17 | 0 | 0 | 4.17 | 0 | 0 | 0 | 0 |
| NCC(F)(F)C(F)(F)C(F)(F)C(F)(F)C(F)(F)C(F)(F)C(F)(F)F [1H,1H-Perfluorooctylamine] (max tested concentration (log10 uM): 2) | 0 | 22.5 ± 32 | 0 | 0 | 20 ± 28 | 0 | 0 | 15 ± 21 | 20 ± 28 |
| O=C(O)C(F)(F)OC(F)(F)C(F)(F)OC(F)(F)C(=O)O [Perfluoro-3,6-dioxaoctane-1,8-dioic acid] (max tested concentration (log10 uM): 2) | 0 | 0 | 0 | 0 | 0 | 0 | 0 | 0 | 0 |
| OCCC(F)(F)C(F)(F)C(F)(F)C(F)(F)F [4:2 Fluorotelomer alcohol] (max tested concentration (log10 uM): 2) | 0 | 4.17 | 0 | 0 | 4.17 | 0 | 0 | 0 | 0 |
| O=S(=O)(O)C(F)(F)C(F)(F)C(F)(F)C(F)(F)C(F)(F)C(F)(F)F [Potassium perfluorohexanesulfonate] (max tested concentration (log10 uM): 2) | 0 | 44.4 | 0 | 16.7 | 55.6 | 0 | 19.4 | 33.3 | 77.8 |
| O=C(O)C(F)(F)C(F)(F)C(F)(F)C(F)(F)C(F)(F)C(F)(F)C(F)(F)F [Perfluorooctanoic acid] (max tested concentration (log10 uM): 2) | 0 | 16.7 | 4.17 | 0 | 16.7 | 0 | 8.33 | 0 | 16.7 |
| O=C(O)C(F)(F)C(F)(F)C(F)(F)C(F)(F)C(F)(F)C(F)(F)C(F)(F)C(F)(F)C(F)(F)C(F)(F)C(F)(F)C(F)(F)C(F)(F)F [Perfluorotetradecanoic acid] (max tested concentration (log10 uM): 1.30103) | 0 | 0 | 0 | 0 | 2.27 | 0 | 0 | 0 | 4.55 |
| N=C(N)C(F)(F)C(F)(F)C(F)(F)C(F)(F)C(F)(F)C(F)(F)C(F)(F)F [Perfluorooctanamidine] (max tested concentration (log10 uM): 1) | 0 | 4.17 | 0 | 16.7 | 8.33 | 0 | 0 | 0 | 0 |
| O=C(O)C(F)(F)C(F)(F)C(F)(F)F [Perfluorobutanoic acid] (max tested concentration (log10 uM): 2) | 0 | 20 | 0 | 0 | 20 | 0 | 0 | 20 | 20 |
| OCC(F)(F)OC(F)(F)C(F)(F)OC(F)(F)C(F)(F)OC(F)(F)CO [1H,1H,11H,11H-Perfluorotetraethylene glycol] (max tested concentration (log10 uM): 1.47712) | 0 | 0 | 0 | 0 | 0 | 0 | 0 | 0 | 0 |
| O=C(O)C(F)(F)C(F)(F)C(F)(F)OC(F)(C(F)(F)F)C(F)(F)F [Perfluoro-4-isopropoxybutanoic acid] (max tested concentration (log10 uM): 2) | 0 | 0 | 0 | 0 | 0 | 0 | 0 | 0 | 0 |
| CN(C(=O)C(F)(F)C(F)(F)C(F)(F)F)[Si](C)(C)C [N-Methyl-N-trimethylsilylheptafluorobutyramide] (max tested concentration (log10 uM): 2) | 0 | 0 | 0 | 0 | 0 | 0 | 0 | 0 | 0 |

| Structure (SMILES) | max % larvae (Danio rerio embryo/larva [1]) [%] | max % larvae (Danio rerio embryo/larva [2]) [%] | max % larvae (Danio rerio embryo/larva [3]) [%] | max % larvae (Danio rerio embryo/larva [4]) [%] | max % larvae generally abnormal across tested concentrations (Danio rerio embryo/larva [5]) [%] | max % larvae (Danio rerio embryo/larva [6]) [%] | max % larvae (Danio rerio embryo/larva [7]) [%] | max % larvae (Danio rerio embryo/larva [8]) [%] | max % larvae (Danio rerio embryo/larva [9]) [%] |
| --- | --- | --- | --- | --- | --- | --- | --- | --- | --- |
| O=C(O)C(F)(F)C(F)(F)C(F)(F)OC(F)(F)F [Perfluoro(4-methoxybutanoic acid)] (max tested concentration (log10 uM): 2) | 0 | 0 | 0 | 0 | 0 | 0 | 0 | 0 | 0 |
| O=P(O)(O)OCCC(F)(F)C(F)(F)C(F)(F)C(F)(F)C(F)(F)C(F)(F)F [6:2 Fluorotelomer phosphate monoester] (max tested concentration (log10 uM): 2) | 0 | 0 | 0 | 0 | 0 | 0 | 0 | 0 | 0 |
| OCC(F)(F)C(F)(F)C(F)(F)CO [Hexafluoroamylene glycol] (max tested concentration (log10 uM): 2) | 0 | 0 | 0 | 0 | 0 | 0 | 0 | 0 | 0 |
| O=C(CC(=O)C(F)(F)C(F)(F)C(F)(F)F)c1cccs1 [(Perfluorobutyryl)-2-thenoylmethane] (max tested concentration (log10 uM): 0.477121) | 0 | 8.33 | 0 | 0 | 8.33 | 0 | 0 | 8.33 | 16.7 |
| C=C(C)C(=O)OCC(F)(F)C(F)(F)C(F)(F)C(F)F [1H,1H,5H-Perfluoropentyl methacrylate] (max tested concentration (log10 uM): 2) | 0 | 25 | 16.7 | 0 | 25 | 4.17 | 0 | 16.7 | 33.3 |
| COC(=O)C(F)(F)C(F)(F)OC(F)(C(F)(F)F)C(F)(F)OC(F)=C(F)F (centres undefined) [Methyl perfluoro(3-(1-ethenyloxypropan-2-yloxy)propanoate)] (max tested concentration (log10 uM): 1.60206) | 0 | 8.33 | 0 | 0 | 8.33 | 0 | 4.17 | 0 | 0 |
| O=C(O)C(F)(F)OC(F)(F)C(F)(F)OC(F)(F)F [Perfluoro-3,6-dioxaheptanoic acid] (max tested concentration (log10 uM): 2) | 0 | 4.17 | 0 | 0 | 4.17 | 0 | 0 | 0 | 0 |
| C=CC(=O)OCCC(F)(F)C(F)(F)C(F)(F)C(F)(F)C(F)(F)C(F)(F)C(F)(F)C(F)(F)F [2-(Perfluorooctyl)ethyl acrylate] (max tested concentration (log10 uM): 2) | 0 | 0 | 0 | 0 | 0 | 0 | 0 | 0 | 0 |
| NC(=O)C(F)(F)C(F)(F)C(F)(F)C(F)F [Perfluoropentanamide] (max tested concentration (log10 uM): 2) | 0 | 0 | 0 | 0 | 0 | 0 | 0 | 0 | 0 |
| NC(=O)C(F)(F)C(F)(F)C(F)(F)C(F)(F)C(N)=O [Octafluoroadipamide] (max tested concentration (log10 uM): 2) | 0 | 0 | 0 | 0 | 0 | 0 | 0 | 0 | 0 |
| C=C(C)C(=O)OCC(F)(F)C(F)(F)C(F)(F)C(F)(F)C(F)(F)C(F)(F)C(F)(F)F [(Perfluoroheptyl)methyl methacrylate] (max tested concentration (log10 uM): 1.60206) | 0 | 0 | 0 | 0 | 0 | 0 | 0 | 0 | 0 |
| NCC(F)(F)C(F)(F)C(F)(F)C(F)(F)C(F)(F)C(F)(F)C(F)(F)C(F)(F)F [1H,1H-Perfluorononylamine] (max tested concentration (log10 uM): 1.60206) | 0 | 50 | 0 | 50 | 75 | 0 | 25 | 50 | 50 |
| CCN(CCO)S(=O)(=O)C(F)(F)C(F)(F)C(F)(F)C(F)(F)C(F)(F)C(F)(F)C(F)(F)C(F)(F)F [N-Ethyl-N-(2-hydroxyethyl)perfluorooctane sulfonamide] (max tested concentration (log10 uM): 2) | 0 | 8.33 | 0 | 0 | 8.33 | 0 | 0 | 0 | 8.33 |
| O=C(Cl)C(F)(F)C(F)(F)C(F)(F)C(=O)Cl [Hexafluoroglutaryl chloride] (max tested concentration (log10 uM): 2) | 0 | 0 | 0 | 0 | 0 | 0 | 0 | 0 | 0 |
| OCC(F)(F)OC(F)(F)C(F)(F)OC(F)(F)CO [1H,1H,8H,8H-Perfluoro-3,6-dioxaoctane-1,8-diol] (max tested concentration (log10 uM): 2) | 0 | 0 | 0 | 0 | 0 | 0 | 0 | 0 | 0 |
